Like-named read-outs stand apart in the source and are kept apart here.
Assays:
[1] = target: DCN1 (DCUND1) protein PONY domain (Homo sapiens (Human), UniProt Q96GG9); assay: TR-FRET assay, DCN1 binding with FAM-labeled probe
How it was run: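 Tb-DCN1 PONY domain (E. coli, biotin/streptavidin-Tb); FAM-labelled non-covalent inhibitor probe; TritonX buffer, 200 mM NaCl; 5 nM DCN1 + 20 nM probe or 0.31 nM DCN1 + 900 nM total probe; 0.1% DMSO; TR-FRET read 1, 5, 24 hrs.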

[2] = tested on: Cullin-3 (CUL3) neddylation; assay: AlphaLISA assay for Cullin-3 (CUL3) neddylation in TF 1 cells; format: cell-based; conditions: 3 hours treatment
Description: An AiphaLISA assay was performed to evaluate the ability of the compounds to suppress neddylation, which is downstream from DCN-1 and DCN-2. A stronger inhibition of DCN-1 and DCN-2 is expected to result in a suppression of neddylation as shown by a lower AlphaLISA signal. The AlphaLISA assay for detecting Cullin-3 (CUL3) neddylation was performed according to manufacturer instructions (Revvity, Hopkinton, MA). Briefly, TF 1 cells (ATCC) were plated in Iscove's Modified Dulbecco's Medium (IMIDM) without supplements in 384-well plates. These cells were treated with […] for 3 hours before lysing them with AlphaLISA lysis buffer, 5× (Revvity). To detect the level of CUL3 neddylation, biotinylated anti-NEDD8 antibody, was added followed by AlphaLISA Acceptor beads conjugated with anti-CUL3 antibody. After overnight incubation, Streptavidin-coated Alpha Donor beads were added and incubated for 1 hour. The AlphaLISA signal was then read on a VICTOR Nivo Multimode Microplate Reader (Revvity, Hopkinton, MA). The positive control was 1 μM DI-1548, which is reported to reduce CUL3 neddylation, also referred to as C-1 in Example 41 (Zhou et al. Nature Comm. 2021). The neddylation signal was normalized such that the percent inhibition is 0% for vehicle control and 100% for positive control. The dose-response curves were fitted with the Hill equation to obtain IC50 values (Graphpad Prism).

[3] = 24 hr after treatment with compound, read-out: TR FRET IC50 24 hr
[4] = TR FRET IC50 1 hr (nM), 1 hr after treatment with compound
[5] = read-out: TR FRET IC50 1 hr, 1 hr after treatment with compound

Sequence of DCN1 (DCUND1) protein PONY domain (Q96GG9 60-248): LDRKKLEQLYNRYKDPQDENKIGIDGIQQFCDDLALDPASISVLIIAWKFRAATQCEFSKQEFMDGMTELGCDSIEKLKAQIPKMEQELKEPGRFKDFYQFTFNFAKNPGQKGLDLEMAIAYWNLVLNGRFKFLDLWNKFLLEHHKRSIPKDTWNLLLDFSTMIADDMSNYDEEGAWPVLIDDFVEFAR

| SMILES | IC50 [1, 3] | IC50 [1, 4] | IC50 ([2]; Homo sapiens, TF-1, 3 h) | IC50 [1, 5] | IC50 [2] |
| --- | --- | --- | --- | --- | --- |
| CCN1C(=O)[C@H](NC(=O)c2cccc(C(F)(F)F)c2)[C@@H](c2ccc(F)cc2)c2c(CN3C(=O)CC[C@H]3C#N)nn(-c3ccccc3)c21 [Compound I-596, N-((4S,5R)-3-(((S)-2-cyano-5-oxopyrrolidin-1-yl)methyl)-7-ethyl-4-(4-fluorophenyl)-6-oxo-1-phenyl-4,5,6,7-tetrahydro-1H-pyrazolo[3,4-b]pyridin-5-yl)-3-(trifluoromethyl)benzamide] | 1000 to 3000 nM | 1000 to 3000 nM | > 1000 nM | – | – |
| CCN1C(=O)[C@@H](NC(=O)c2cccc3c2CCCO3)[C@@H](C2CC2)c2c(C(=O)N3[C@H](C#N)C[C@H]4C[C@H]43)nn(C3CCOCC3)c21 [Compound I-633] | 200 to 1000 nM | 1000 to 3000 nM | 100 to 1000 nM | – | – |
| CCN1C(=O)[C@@H](NC(=O)c2nccc(C(F)(F)F)n2)[C@@H](c2ccc(F)cc2)c2c(CNC(=O)/C=C/C(=O)OC(C)(C)C)nn(-c3ccccc3)c21 [Compound I-408] | ≤ 200 nM | – | 100 to 1000 nM | ≤ 200 nM | – |
| CCN1C(=O)[C@@H](NC(=O)c2cccc(C(F)(F)F)c2)[C@@H](c2ccc(F)cc2)c2c(CN(C#N)CCCN3CCN(C4COC4)CC3)nn(-c3ccccc3)c21 [Compound I-614] | ≤ 200 nM | 200 to 1000 nM | ≤ 100 nM | – | – |
| C=C(CN1CCC1)C(=O)NCc1nn(-c2ccccc2)c2c1[C@@H](C1CC1)[C@@H](NC(=O)c1cccc(C(F)(F)F)c1)C(=O)N2CC (stereo in doubt) [Compound I-636] | 1000 to 3000 nM | 1000 to 3000 nM | > 1000 nM | – | – |
| CCN1C(=O)[C@@H](NC(=O)c2cccc(C(F)(F)F)c2)[C@@H](c2ccc(F)cc2)c2c([C@@H](CO)NC#N)nn(-c3ccccc3)c21 [Compound I-487] | ≤ 200 nM | 200 to 1000 nM | 100 to 1000 nM | – | – |
| CCN1C(=O)[C@@H](NC(=O)c2cccc(C(F)(F)F)c2)[C@@H](c2ccc(F)cc2)c2c(C(=O)N3[C@H](C#N)C[C@H]4C[C@H]43)nn([C@@H]3CCOC3)c21 (single isomer, unassigned) [Compound I-583] | 1000 to 3000 nM | 1000 to 3000 nM | – | – | > 1000 nM |
| CCN1C(=O)[C@H](NC(=O)c2cccc(C(F)(F)F)c2)[C@H](c2ccc(F)cc2)c2c(C(=O)N3CCC[C@H]3C#N)nn(-c3cccc(OCCCN4CCOCC4)c3)c21 [Compound I-544] | 1000 to 3000 nM | 1000 to 3000 nM | > 1000 nM | – | – |
| CCN1C(=O)[C@H](NC(=O)c2cccc(C(F)(F)F)c2)[C@H](c2ccc(F)cc2)c2c(C(=O)N3CCC[C@H]3C#N)nn(-c3cccc(OCCCN4CCN(C5COC5)CC4)c3)c21 [Compound I-681] | 1000 to 3000 nM | 1000 to 3000 nM | > 1000 nM | – | – |
| CCN1C(=O)[C@@H](NC(=O)c2cccc(C(F)(F)F)c2)[C@@H](c2ccc(F)cc2)c2c([C@@H](CCO)NC#N)nn(-c3ccccc3)c21 (mixture of isomers) [Compound I-567, N-(rac-(4S,5S)-3-((R)-1-cyanamido-3-hydroxypropyl)-7-ethyl-4-(4-fluorophenyl)-6-oxo-1-phenyl-4,5,6,7-tetrahydro-1H-pyrazolo[3,4-b]pyridin-5-yl)-3-(trifluoromethyl)benzamide] | 1000 to 3000 nM | 1000 to 3000 nM | > 1000 nM | – | – |
| CCN1C(=O)[C@@H](NC(=O)c2cccc(C(F)(F)F)c2)[C@@H](c2ccc(F)cc2)c2c(C(=O)N3CC[C@@H]3C#N)nn(-c3ccccc3)c21 [Compound I-570] | 200 to 1000 nM | 1000 to 3000 nM | 100 to 1000 nM | – | – |
| CCN1C(=O)[C@@H](NC(=O)c2cccc(C(F)(F)F)c2)[C@@H](C2CC2)c2c(C(=O)N3CS(=O)(=O)C[C@@H]3C#N)nn(-c3ccccc3)c21 [Compound I-521] | ≤ 200 nM | 1000 to 3000 nM | ≤ 100 nM | – | – |
| CCN1C(=O)[C@H](NC(=O)c2cccc(C(F)(F)F)c2)[C@H](c2ccc(F)cc2)c2c(C(=O)N3CCOC[C@H]3C#N)nn(-c3ccccc3)c21 [Compound I-540] | 1000 to 3000 nM | 1000 to 3000 nM | > 1000 nM | – | – |
| CCN1C(=O)[C@@H](NC(=O)c2cccc(C(F)(F)F)c2)[C@@H](c2ccc(F)cc2)c2c([C@@H](C)NC#N)nn(C3CCOCC3)c21 [Compound I-412] | ≤ 200 nM | – | 100 to 1000 nM | ≤ 200 nM | – |
| CCN1C(=O)[C@@H](NC(=O)c2cccc(C(F)(F)F)c2)[C@@H](c2ccc(F)cc2)c2c(C(=O)N(C)CC#N)nn(-c3ccccc3)c21 (racemic) [Compound I-398] | 1000 to 3000 nM | 1000 to 3000 nM | – | – | > 1000 nM |
| CCN1C(=O)[C@@H](NC(=O)c2ccc3nn[nH]c3c2)[C@@H](C2CC2)c2c(C(=O)N3[C@H](C#N)C[C@H]4C[C@H]43)nn(C3CCOCC3)c21 [Compound I-705] | 1000 to 3000 nM | 1000 to 3000 nM | > 1000 nM | – | – |
| CCN1C(=O)[C@@H](NC(=O)c2cccc(C(F)(F)F)c2)[C@@H](c2ccc(F)cc2)c2c(CN(C#N)CCCN3CC4(COC4)C3)nn(-c3ccccc3)c21 [Compound I-577] | 200 to 1000 nM | 200 to 1000 nM | > 1000 nM | – | – |
| CCN1C(=O)[C@@H](NC(=O)c2nccc(C(F)(F)F)n2)[C@H](c2ccc(F)cc2)c2c(CC(=O)N[C@@H](C)C#N)nn(-c3ccccc3)c21 (single isomer, unassigned) [Compound I-451] | 1000 to 3000 nM | 1000 to 3000 nM | > 1000 nM | – | – |
| CCN1C(=O)[C@H](NC(=O)c2cccc(C(F)(F)F)c2)[C@H](C)c2c(C(=O)N3[C@H](C#N)C[C@H]4C[C@H]43)nn(C3CCOCC3)c21 [Compound I-599] | 1000 to 3000 nM | 1000 to 3000 nM | 100 to 1000 nM | – | – |
| CCN1C(=O)[C@H](NC(=O)c2cccc(C(F)(F)F)c2)[C@H](c2ccc(F)cc2)c2c(C(=O)N3CCC[C@H]3C#N)nn(-c3ccccc3)c21 [Compound I-611] | 1000 to 3000 nM | 1000 to 3000 nM | > 1000 nM | – | – |
| CCN1C(=O)[C@@H](NC(=O)c2cccc(C(F)(F)F)c2)[C@@H](C2CC2)c2c(C(=O)N3CC[C@H]3C#N)nn(-c3ccccc3)c21 [Compound I-561] | ≤ 200 nM | 1000 to 3000 nM | ≤ 100 nM | – | – |
| CCN1C(=O)[C@@H](NC(=O)c2cccc(C(F)(F)F)c2)[C@@H](c2ccc(F)cc2)c2c(CN(C#N)CCCN(C)C3COC3)nn(-c3ccccc3)c21 [Compound I-646] | ≤ 200 nM | – | ≤ 100 nM | ≤ 200 nM | – |
| CCN1C(=O)[C@@H](NC(=O)N2CCC[C@H](C(F)(F)F)C2)[C@@H](c2ccc(F)cc2)c2c(C(=O)N3CCC[C@H]3C#N)nn(-c3ccccc3)c21 (single isomer, unassigned) [Compound I-501] | 200 to 1000 nM | 1000 to 3000 nM | > 1000 nM | – | – |
| CCN1C(=O)[C@H](NC(=O)c2cccc(C(F)(F)F)c2)[C@H](C2CC2)c2c(C(=O)N3CCC[C@H]3C#N)nn(C3CCOCC3)c21 [Compound I-666] | 1000 to 3000 nM | 1000 to 3000 nM | > 1000 nM | – | – |
| CCN1C(=O)[C@@H](NC(=O)c2cccc3[nH]ncc23)[C@@H](C2CC2)c2c(C(=O)N3[C@H](C#N)C[C@H]4C[C@H]43)nn(C3CCOCC3)c21 [Compound I-602] | 1000 to 3000 nM | 1000 to 3000 nM | > 1000 nM | – | – |
| C[C@@H](NC#N)c1nn(-c2ccccc2)c2c1[C@@H](c1ccc(F)cc1)[C@@H](NC(=O)c1cccc(C(F)(F)F)c1)C(=O)N2CCO [Compound I-498] | 1000 to 3000 nM | 1000 to 3000 nM | > 1000 nM | – | – |
| CCN1C(=O)[C@@H](NC(=O)c2cccc(C(F)(F)F)c2)[C@@H](c2ccc(F)cc2)c2c([C@H](C)NC#N)nn(-c3ccccc3)c21 [Compound I-530] | ≤ 200 nM | 200 to 1000 nM | ≤ 100 nM | – | – |
| CCN1C(=O)[C@@H](NC(=O)CN2CC(c3ccccc3)CC2=O)[C@@H](C2CC2)c2c(C(=O)N3[C@H](C#N)C[C@H]4C[C@H]43)nn(C3CCOCC3)c21 (stereo partly drawn) [Compound I-629] | 1000 to 3000 nM | 1000 to 3000 nM | > 1000 nM | – | – |
| CCN1C(=O)[C@@H](NC(=O)c2cccc(C(F)(F)F)c2)[C@@H](c2ccc(F)cc2)c2c(CN(CC#N)C(C)=O)nn(-c3ccccc3)c21 [Compound I-542, N-((4S,5S)-3-((N-(cyanomethyl)acetamido)methyl)-7-ethyl-4-(4-fluorophenyl)-6-oxo-1-phenyl-4,5,6,7-tetrahydro-1H-pyrazolo[3,4-b]pyridin-5-yl)-3-(trifluoromethyl)benzamide] | 200 to 1000 nM | 1000 to 3000 nM | 100 to 1000 nM | – | – |
| CCN1C(=O)[C@@H](NC(=O)c2nccc(C(F)(F)F)n2)[C@H](c2ccc(F)cc2)c2c(CNC(=O)/C=C/C(=O)N(C)C)nn(-c3ccccc3)c21 [Compound I-460] | 200 to 1000 nM | 200 to 1000 nM | > 1000 nM | – | – |

Reference: patent US20250163057A1, “DCN-1 MODULATING COMPOUNDS AND METHODS OF USE THEREOF” (Cellarity, Inc., priority 2023, published 2025)
